Experimental data as given in patent US20260199320A1, “COMBINATION THERAPIES FOR TREATING CANCER” (INSTITUTE FOR CANCER RESEARCH D/B/A THE RESEARCH INSTITUTE …, priority 2022, published 2026).
Read-outs that look alike come from different tables or passages of the source. Blank lines part the entries; values can stand above or below the compound they belong to.

System: HEP 3B Hepatocellular Carcinoma
Test: Cell viability by CellTiter Blue assay, CalcuSyn 2.0 combination analysis, HEP 3B
Conditions: for IC50: read-out: Dm; for Dose Len: Len alone; for Dose Lon: Lon alone; for Dose Sor: Sor alone
Method: Cell viability was analyzed by CellTiter Blue assay. ED, effective dose. The data analysis was performed using CalcuSyn 2.0 software. […] CI 0.85-0.9: slight synergism; CI 0.7-0.85: moderate synergism; CI 0.3-0.7: synergism; CI 0.1-0.3: strong synergism; CI<0.1: very strong synergism.

IC50 (Homo sapiens, Hep3B): 1.98 µM
Compound: COc1cc2nccc(Oc3ccc(NC(=O)NC4CC4)c(Cl)c3)c2cc1C(N)=O [Len, Lenvatinib]
Effect (Dose 1.0 uM): 0.3487
Effect (Dose 2.0 uM): 0.5908
Effect (Dose 4.0 uM): 0.6835
Effect (Dose 6.0 uM): 0.706
Effect (Dose 8.0 uM): 0.7316
Effect (Dose 1.0E−4 uM): 1.0E−4
Dose Len (Fa 0.05): 0.08241 µM
Dose Len (Fa 0.1): 0.1847 µM
Dose Len (Fa 0.15): 0.3044 µM
Dose Len (Fa 0.2): 0.4435 µM
Dose Len (Fa 0.25): 0.605 µM
Dose Len (Fa 0.3): 0.7937 µM
Dose Len (Fa 0.35): 1.016 µM
Dose Len (Fa 0.4): 1.279 µM
Dose Len (Fa 0.45): 1.596 µM
Dose Len (Fa 0.48908 (experimental point)): 1.891 µM
Dose Len (Fa 0.5): 1.982 µM
Dose Len (Fa 0.55): 2.462 µM
Dose Len (Fa 0.6): 3.071 µM
Dose Len (Fa 0.65): 3.868 µM
Dose Len (Fa 0.66115 (experimental point)): 4.08 µM
Dose Len (Fa 0.7): 4.949 µM
Dose Len (Fa 0.75): 6.493 µM
Dose Len (Fa 0.76439 (experimental point)): 7.066 µM
Dose Len (Fa 0.79346 (experimental point)): 8.481 µM
Dose Len (Fa 0.8): 8.859 µM
Dose Len (Fa 0.83864 (experimental point)): 11.7543 µM
Dose Len (Fa 0.85): 12.9048 µM
Dose Len (Fa 0.9): 21.2693 µM
Dose Len (Fa 0.95): 47.6701 µM
Dose Len (Fa 0.97): 84.6505 µM
Dose Len (Fa 1.0E−4 (experimental point)): 9.48e-05 µM

IC50 (Homo sapiens, Hep3B): 1.56 µM
Compound: NC(=O)N1CCC(CC(=O)N2CCC([C@H]3c4ncc(Br)cc4CCc4cc(Cl)cc(Br)c43)CC2)CC1 [Lon, Lonafarnib]
Effect (Dose 100.0 nM): 0.2171
Effect (Dose 200.0 nM): 0.2792
Effect (Dose 400.0 nM): 0.3124
Effect (Dose 600.0 nM): 0.3247
Effect (Dose 800.0 nM): 0.3747
Effect (Dose 1.0E−4 nM): 1.0E−4
Dose Lon (Fa 0.05): 7.632 nM
Dose Lon (Fa 0.1): 29.4334 nM
Dose Lon (Fa 0.15): 67.8864 nM
Dose Lon (Fa 0.2): 127.362 nM
Dose Lon (Fa 0.25): 214.159 nM
Dose Lon (Fa 0.3): 337.210 nM
Dose Lon (Fa 0.34468 (experimental point of LonSor)): 488.163 nM
Dose Lon (Fa 0.35): 509.303 nM
Dose Lon (Fa 0.37774 (experimental point of LonSor)): 632.458 nM
Dose Lon (Fa 0.4): 749.086 nM
Dose Lon (Fa 0.45): 1084.42 nM
Dose Lon (Fa 0.48908 (experimental point of LonLen)): 1439.98 nM
Dose Lon (Fa 0.5): 1558.23 nM
Dose Lon (Fa 0.55): 2239.05 nM
Dose Lon (Fa 0.6): 3241.39 nM
Dose Lon (Fa 0.60837 (experimental point of LonSor)): 3452.95 nM
Dose Lon (Fa 0.65): 4767.46 nM
Dose Lon (Fa 0.66115 (experimental point of LonLen)): 5212.31 nM
Dose Lon (Fa 0.7): 7200.51 nM
Dose Lon (Fa 0.75): 11337.8 nM
Dose Lon (Fa 0.76439 (experimental point of LonLen)): 13060.1 nM
Dose Lon (Fa 0.79346 (experimental point of LonLen)): 17723.1 nM
Dose Lon (Fa 0.8): 19064.4 nM
Dose Lon (Fa 0.83864 (experimental point of LonLen)): 30595.1 nM
Dose Lon (Fa 0.84428 (experimental point of LonSor)): 33023.4 nM
Dose Lon (Fa 0.85): 35766.8 nM
Dose Lon (Fa 0.9): 82494.1 nM
Dose Lon (Fa 0.93635 (experimental point of LonSor)): 200408. nM
Dose Lon (Fa 0.95): 318153. nM
Dose Lon (Fa 0.97): 831265. nM
Dose Lon (Fa 1.0E−4 (experimental point)): 9.27e-05 nM

IC50 (CalcuSyn median-effect fit, single drug dosed in uM): 4.93 µM
Compound: CNC(=O)c1cc(Oc2ccc(NC(=O)Nc3ccc(Cl)c(C(F)(F)F)c3)cc2)ccn1 [Sor, Sorafenib]
Effect (Dose 1.0 uM): 0.05824
Effect (Dose 2.0 uM): 0.1667
Effect (Dose 4.0 uM): 0.4078
Effect (Dose 6.0 uM): 0.6762
Effect (Dose 8.0 uM): 0.8681
Effect (Dose 1.0E−4 uM): 1.0E−4
Dose Sor (Fa 0.05): 0.1769 µM
Dose Sor (Fa 0.1): 0.4116 µM
Dose Sor (Fa 0.15): 0.6944 µM
Dose Sor (Fa 0.2): 1.029 µM
Dose Sor (Fa 0.25): 1.425 µM
Dose Sor (Fa 0.3): 1.893 µM
Dose Sor (Fa 0.34468 (experimental point)): 2.386 µM
Dose Sor (Fa 0.35): 2.451 µM
Dose Sor (Fa 0.37774 (experimental point)): 2.806 µM
Dose Sor (Fa 0.4): 3.12 µM
Dose Sor (Fa 0.45): 3.933 µM
Dose Sor (Fa 0.5): 4.934 µM
Dose Sor (Fa 0.55): 6.19 µM
Dose Sor (Fa 0.6): 7.803 µM
Dose Sor (Fa 0.60837 (experimental point)): 8.118 µM
Dose Sor (Fa 0.65): 9.934 µM
Dose Sor (Fa 0.7): 12.8580 µM
Dose Sor (Fa 0.75): 17.0827 µM
Dose Sor (Fa 0.8): 23.6479 µM
Dose Sor (Fa 0.84428 (experimental point)): 33.3507 µM
Dose Sor (Fa 0.85): 35.0585 µM
Dose Sor (Fa 0.9): 59.1449 µM
Dose Sor (Fa 0.93635 (experimental point)): 103.075 µM
Dose Sor (Fa 0.95): 137.645 µM
Dose Sor (Fa 0.97): 251.060 µM
Dose Sor (Fa 1.0E−4 (experimental point)): 0.000148 µM
